Source: patent publication US8703120B2, “Use of oncolytic herpes viruses for killing cancer stem cells” (The General Hospital Corporation, priority 2008, dated 2014)

Assays:
Type in all cases: cell-based
[1] = system: U87; experiment: MTT cell viability assay with Chou-Talalay analysis; settings: Homo sapiens, U-87 MG, 96 h, MTT 4 days later
Protocol: (§1) FIG. 9A depicts that temozolomide (TMZ) synergizes with oncolytic Herpes vector G47Δ in MGMT-negative glioma cell lines U87 and U373. U87 or U373 cells were seeded to 96-well plates at 3000 cells per well. The next day, 1:3 serial dilution series of Temozolomide (TMZ) (EC50 200 μM), and G47Δ (EC50 MOI=0.06) were prepared. TMZ was applied first followed by G47Δ 12 hours later. MTT assay was performed to measure cell viability 4 days later.

[2] = system: U373; experiment: as above; settings: Homo sapiens, U373 MG, 96 h, MTT 4 days later
Protocol: as §1

[3] = system: BT74 glioma stem cells; experiment: MTS cell viability assay with Chou-Talalay analysis; settings: Homo sapiens, 96 h, MTS 4 days later
Protocol: BT74 glioma stem cells were seeded to 96-well plates at 5000 cells per well. […] TMZ was applied first, with or without O6-Benzylguanine (O6-BG:80 μM), followed by G47Δ 12 hours later. MTS assay was performed to measure cell viability 4 days later.
(§2) TMZ was applied first, with or without O6-Benzylguanine (O6-BG:40 or 80 μM), followed by G47Δ 12 hours later. MTS assay was performed to measure cell viability 4 days later.

[4] = system: GBM13 glioma stem cells; experiment: as above; settings: Homo sapiens, 96 h, MTS 4 days later
Protocol: as §2

[5] = system: GBM8 glioma stem cells; experiment: MTS cell viability / cell killing assay with Chou-Talalay analysis; settings: Homo sapiens, 96 h, MTS 4 days later
Protocol: (§3) FIG. 10A depicts TMZ synergy with G47delta in MGMT-negative glioma stem cells (GBM4 and GBM8). GBM4 or GBM8 glioma stem cells were seeded to 96-well plates at 5000 cells per well. […] TMZ was applied first followed by G47Δ 12 hours later. MTS assay was performed to measure cell viability 4 days later.

[6] = system: GBM4 glioma stem cells; experiment: as above; settings: Homo sapiens, 96 h, MTS 4 days later
Protocol: as §3

`Cn1nnc2c(C(N)=O)ncn2c1=O` [TMZ, temozolomide] showed an EC50 [1] of 200 µM, an EC50 [2] of 200 µM and an EC50 [3] of 1500 µM. It also gave an EC50 [4] of 1500 µM, an EC50 [5] of 3 µM and an EC50 [6] of 20 µM.
